Key:
human dermal fibroblasts = assay: mGSH distribution after RSL3 in human dermal fibroblasts, confocal imaging; assay type: cell-based; conditions: as the subculture continued
Method: As described in the experiment for MSCs, human dermal fibroblasts subcultured several times were treated with RSL3 and the cells were stained with MitoFreSH-Tracer, and a ratio between cells maintaining mGSH and cells not maintaining mGSH was represented as a percentage through confocal imaging.

hUC-MSCs [1] = assay: Mitochondrial GSH (mGSH) distribution after RSL3, MitoFreSH-Tracer, flow cytometry and confocal imaging; assay type: cell-based, human
Method: After the cultured human umbilical cord-derived mesenchymal stem cells (hUC-MSCs) at passage 4, 7 or 15 were treated with various concentrations of RSL3 and stained with MitoFreSH, the distribution pattern of mitochondrial GSH (mGSH) in the cells was confirmed by histograms using flow cytometry and confocal imaging.
hUC-MSCs at passage 4, 7 or 15 were prepared, seeded at 70000 cells/well in a 6-well cell culture plate, and cultured at 37° C. for 24 hours. The medium used in the culture was prepared by adding 10% fetal bovine serum and 1× penicillin-streptomycin to α-MEM. […] The cells detached from the plate were transferred to an FACS tube and stored on ice, and a fluorescence level was measured using a flow cytometer.
hUC-MSCs at passage 4, 7 or 15 were prepared, seeded at 7000 cells/100 μl per well in a 96-well cell culture plate, and cultured at 37° C. for 24 hours. […] To remove MitoFreSH-Tracer from the medium before measurement, the medium was exchanged with fresh 10 mM HEPES-containing HBSS, and fluorescence images were measured using a confocal imaging system, Operetta.
A F510/F580 ratio referring to a GSH mean value in cells was calculated by measuring fluorescence values of F510 (fluorescence value when MitoFreSH-Tracer was bound with SH) and F580 (fluorescence value of MitoFreSH-Tracer, which was not bound with SH) in cells and dividing the F510 value by the F580 value. […]

hUC-MSCs [2] = assay: CD146 surface expression in mGSH^High and mGSH^Low cells after RSL3, flow cytometry; assay type: cell-based, human; conditions: P4 hUC-MSC, compared with mGSH level-maintaining group
From the text: To confirm whether the stem cell function of cells in which an mGSH level decreased is deteriorated under lipid oxidative stress caused by RSL3 treatment, an expression level of CD146, which is a cell surface protein known to be highly expressed in stem cells of high quality according to conventional literature, was confirmed through flow cytometry.
The cells were stained by the same method as a method of measuring a mitochondria GSH level through the flow cytometry as described above, and detached from the plate using trypsin. The detached cells were treated with an antibody for flow cytometry with respect to CD146 to which a fluorescent material BUV395 was bound at 4° C. for 30 minutes, and washed with PBS. Using a flow cytometer, F510 and F580 fluorescence values for measuring a GSH level and a BUV395 fluorescence value for measuring CD146 expression were measured. Afterward, based on the point at which the histogram showing the F510/F580 distribution was divided into two peaks, the cells were divided into GSH^High cells (right peak) and GSH^Low cells (left peak) using FlowJo software, and a CD146-positive ratio of the corresponding cells is represented as a percentage (%).

T cells = assay: Anti-inflammatory effect of treated hUC-MSCs: T cell proliferation, T cell differentiation, Treg cell differentiation; assay type: cell-based
Method: The inventors observed an effect of the material on stem cells by treating each stem cells with a material for enhancing a glutathione evaluation parameter. When hUC-MSCs were subcultured in a L-AA2G-containing medium, CFU-F, migration capacity, and an anti-inflammatory effect were observed. A CFU-F assay (n=3) was performed by treating hUC-MSCs with 125 or 250 μg/mL of AA2G for three days. As shown in FIGS. 16A and 16B, it was confirmed that, when AA2G was treated, CFU-F increased. In addition, as hUC-MSCs were treated with 125 or 250 μg/mL of AA2G for three days, PDGF-AA-induced migration capacity (n=3) was analyzed. As shown in FIGS. 17A and 17B, it was confirmed that the migration capacity was increased by AA2G treatment. In addition, the reduction in T cell proliferation, a reduction in T cell differentiation, and the promotion of Treg cell differentiation were observed by treating hUC-MSCs with 125 or 250 μg/mL of AA2G for three days.
In addition, hUC-MSCs were cultured with ferrostatin-1 (0.2, 1, 2 and 4 μM) and liproxstatin-1 (0.1, 0.5, 1 and 2 μM), which control a glutathione level in cells by inhibiting lipid oxidation. […] Meanwhile, the hUC-MSCs were treated with 1 μM ferrostatin-1 for 24 hours, 0.2 mM GGC for 2 hours, and 2 mM GSH-EE for 2 hours. As a result, the reduction in T cell proliferation ability and the reduction in T cell differentiation capacity were observed, and promotion of Treg cell differentiation was observed.

hUC-MSCs [3] = assay: CFU-F assay of hUC-MSCs; assay type: cell-based, human; conditions: ferrostatin-1 0.2, 1, 2, 4 μM or liproxstatin-1 0.1, 0.5, 1, 2 μM, 24 hours
Method: The inventors observed an effect of the material on stem cells by treating each stem cells with a material for enhancing a glutathione evaluation parameter. When hUC-MSCs were subcultured in a L-AA2G-containing medium, CFU-F, migration capacity, and an anti-inflammatory effect were observed. A CFU-F assay (n=3) was performed by treating hUC-MSCs with 125 or 250 μg/mL of AA2G for three days. As shown in FIGS. 16A and 16B, it was confirmed that, when AA2G was treated, CFU-F increased. In addition, as hUC-MSCs were treated with 125 or 250 μg/mL of AA2G for three days, PDGF-AA-induced migration capacity (n=3) was analyzed. As shown in FIGS. 17A and 17B, it was confirmed that the migration capacity was increased by AA2G treatment. In addition, the reduction in T cell proliferation, a reduction in T cell differentiation, and the promotion of Treg cell differentiation were observed by treating hUC-MSCs with 125 or 250 μg/mL of AA2G for three days. […] Meanwhile, hUC-MSCs were cultured with a glutathione precursor such as γ-glutamyl cysteine (GGC, 0.1, 0.25, and 0.5 mM). A CFU-F assay (n=3) was performed by treating hUC-MSCs with each concentration of GGC for 2 hours. […] In addition, SDF1α and PDGF-AA-induced migration capacities (n=3) were analyzed for hUC-MSCs without treatment with GGC, and SDF1α- and PDGF-AA-induced migration abilities (n=3) were analyzed by treating hUC-MSCs with the increasing concentrations of GGC. STI571 was used as a PDGFR kinase inhibitor. As shown in FIGS. 20A to 20C, it was confirmed that, according to an increase in GGC treatment concentration, SDF1α- and PDGF-AA-induced migration capacities were enhanced. A CFU-F assay (n=3) was performed by treating hUC-MSCs with 0.2, 1, 2, and 4 μM ferrostatin-1 and 0.1, 0.5, 1, and 2 μM liproxstatin-1 for 24 hours.

[4] = hUC-MSCs treated with 1 μM ferrostatin-1 24 h, 0.2 mM GGC 2 h or 2 mM GSH-EE 2 h

## COC(=O)c1ccc([C@@H]2c3[nH]c4ccccc4c3C[C@@H](C(=O)OC)N2C(=O)CCl)cc1 [RSL3, 1S,3R-RAS-selective lethal 3]
Human dermal fibroblasts
  proportion of cells in which mGSH decreases by treatment with RSL3: increased
hUC-MSCs [1]; hUC-MSCs passage 4, 7 or 15, RSL3 0.1/0.5/1 μM, dependent on RSL3 concentration and passage number
  mGSH levels: reduced
hUC-MSCs [2]
  lowering of CD146-positive ratio in group in which mGSH level is lowered by RSL3: approximately 25%

## CCOC(=O)c1ccc(NC2CCCCC2)c(N)c1 [ferrostatin-1]
T cells; ferrostatin-1 or liproxstatin-1 treatment (FIGS. 27, 28A to 28C)
  anti-inflammatory effect of the hUC-MSCs: did not alter
T cells; [4]
  T cell differentiation capacity: reduction
  T cell proliferation ability: reduction
  Treg cell differentiation: promotion
hUC-MSCs [1]; hUC-MSCs treated with RSL3 (FIG. 33)
  effect of RSL3 on mGSH upon Ferrostatin-1 treatment: disappeared
hUC-MSCs [3]
  CFU-F: improved

From US11841369B2, “Method for improving quality of therapeutic cell through real-time glutathione measurement” (CELL2IN, INC., priority 2017, dated 2023)
